Results reported in PMC7277649, “Amaryllidaceae Alkaloids of Belladine-Type from Narcissus pseudonarcissus cv. Carlton as New Selective Inhibitors of Butyrylcholinesterase” (Biomolecules, 2020).

Legend:
hAChE = target: T1, hAChE (Homo sapiens, UniProt P22303); assay: biochemical; settings: for IC50: mean ± SD of three independent measurements, each in triplicate; for inhibition at 100 µM: tested at 100 µM compound concentration, read-out: %Inhibition hAChE ± SD
T1 construct: 8.3 μL of either blood cell lysate or plasma dilutions; from tissue; host or cells: blood cell lysate
Method: (§1) The hAChE and hBuChE activities were determined using a modified method of Ellman, as described. Briefly, hAChE and hBuChE activities were determined using a modified method of Ellman, with acetylthiocholine iodide (ATChI) and butyrylthiocholine iodide (BuTChI) as substrates, respectively. Briefly, 8.3 μL of either blood cell lysate or plasma dilutions (at least six different concentrations), 283 μL of 5 mM 5,5′-dithiobis-2-nitrobenzoic acid (DTNB) and 8.3 μL of the sample dilution in dimethyl sulfoxide (DMSO) (40 mM, 10 mM, 4 mM, 1 mM, 0.4 mM, and 0 mM) were added to the semi-micro cuvette. The reaction was initiated by addition of 33.3 μL 10 mM substrate (ATChI or BuTChI). The final proportion of DTNB and substrate was […]. The increase of absorbance (ΔA) at 436 nm for AChE and 412 nm for BuChE was measured for 1 min at 37 °C using a spectrophotometer (Synergy^TM HT Multi-Detection Microplate Reader). Each measurement was repeated six times for every concentration of enzyme preparation.

hBuChE = target: T2, hBuChE (Homo sapiens, UniProt P06276); assay: biochemical; format: biochemical; settings: for IC50: mean ± SD of three independent measurements, each in triplicate; for inhibition at 100 µM: tested at 100 µM compound concentration, read-out: % inhibition hBuChE ± SD; for SI for hBuChE: ratio hAChE IC50/hBuChE IC50
T2 construct: 8.3 μL of either blood cell lysate or plasma dilutions; from tissue; host or cells: plasma
Method: as §1

POP (EC 3.4.21.26) = target: T3, POP (EC 3.4.21.26) (Homo sapiens, UniProt P48147); assay: POP inhibition assay; format: biochemical
T3 sequence (P48147 1-710): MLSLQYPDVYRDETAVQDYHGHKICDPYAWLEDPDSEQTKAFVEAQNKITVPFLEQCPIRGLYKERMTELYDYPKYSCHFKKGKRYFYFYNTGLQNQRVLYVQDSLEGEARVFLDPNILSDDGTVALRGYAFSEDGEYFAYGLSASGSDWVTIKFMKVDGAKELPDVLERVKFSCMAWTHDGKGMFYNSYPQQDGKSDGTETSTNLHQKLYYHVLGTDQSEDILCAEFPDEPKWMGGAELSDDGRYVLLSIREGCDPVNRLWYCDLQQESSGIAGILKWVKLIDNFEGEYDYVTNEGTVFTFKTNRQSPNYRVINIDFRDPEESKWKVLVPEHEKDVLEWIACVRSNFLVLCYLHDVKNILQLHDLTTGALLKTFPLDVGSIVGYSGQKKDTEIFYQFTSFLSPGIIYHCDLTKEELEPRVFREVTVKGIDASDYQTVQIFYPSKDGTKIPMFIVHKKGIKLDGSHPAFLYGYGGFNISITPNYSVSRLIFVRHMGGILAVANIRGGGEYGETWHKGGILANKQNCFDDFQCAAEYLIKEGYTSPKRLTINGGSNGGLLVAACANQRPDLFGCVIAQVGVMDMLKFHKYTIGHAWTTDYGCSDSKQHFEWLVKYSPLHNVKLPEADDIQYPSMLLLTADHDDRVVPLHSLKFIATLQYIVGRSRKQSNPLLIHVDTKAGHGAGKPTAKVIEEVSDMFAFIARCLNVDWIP
Method: POP (EC 3.4.21.26) was dissolved in phosphate-buffered saline (PBS; 0.01 M Na/K phosphate buffer, pH 7.4, containing 137 mM NaCl and 2.7 mM KCl); the specific activity of the enzyme was 0.2 U/mL. The assay was performed in standard polystyrene 96-well microplates with a flat and clear bottom. Stock solutions of tested compounds were prepared in DMSO (10 mM). Dilutions (10^−3 to 10^−7 M) were prepared from the stock solution with deionized H2O; the control was performed with the same DMSO concentration. POP substrate, (Z)-Gly-Pro-p-nitroanilide, was dissolved in 50% 1,4-dioxane (5 mM). For each reaction, PBS (170 μL), tested compound (5 μL), and POP (5 μL) were incubated for 5 min at 37 °C. Then, substrate (20 μL) was added, and the microplate was incubated for 30 min at 37 °C. The formation of p-nitroanilide, directly proportional to the POP activity, was measured spectrophotometrically at 405 nm using a microplate ELISA reader (multimode microplate reader Synergy 2, BioTek Instruments, Winooski, VT, USA). […] All calculations were performed using GraphPad Prism software version 7.03 for Windows (GraphPad Software Inc., San Diego, California, USA).

T1 sequence (P22303 other isoform, or with tags, fused parts or gaps): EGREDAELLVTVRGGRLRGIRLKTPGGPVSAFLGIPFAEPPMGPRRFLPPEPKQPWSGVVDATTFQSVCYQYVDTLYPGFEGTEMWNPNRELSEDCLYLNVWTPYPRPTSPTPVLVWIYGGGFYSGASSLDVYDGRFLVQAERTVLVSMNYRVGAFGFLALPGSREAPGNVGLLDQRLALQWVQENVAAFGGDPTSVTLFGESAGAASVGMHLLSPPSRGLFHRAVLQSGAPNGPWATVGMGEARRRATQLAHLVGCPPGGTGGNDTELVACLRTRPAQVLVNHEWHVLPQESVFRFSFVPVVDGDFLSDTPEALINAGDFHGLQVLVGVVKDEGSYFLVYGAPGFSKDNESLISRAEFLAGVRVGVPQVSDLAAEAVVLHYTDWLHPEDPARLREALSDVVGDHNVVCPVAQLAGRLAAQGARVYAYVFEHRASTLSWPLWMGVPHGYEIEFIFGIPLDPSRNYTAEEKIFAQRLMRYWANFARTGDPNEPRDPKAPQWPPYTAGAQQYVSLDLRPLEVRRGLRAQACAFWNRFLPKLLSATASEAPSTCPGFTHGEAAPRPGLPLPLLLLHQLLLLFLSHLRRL

SMILES | IC50 (hAChE) | inhibition at 100 µM (hAChE) | IC50 (hBuChE) | inhibition at 100 µM (hBuChE) | IC50 (POP (EC 3.4.21.26)) | SI for hBuChE (hBuChE) | SI for hBuChE (hBuChE; listed as carltonine A (13)) | SI for hBuChE (hBuChE; listed as carltonine B (14))
COc1cc(C=O)c(-c2cccc3c2N(C)CC3)cc1OC [Lycosinine B (1), lycosinine B] | > 100 µM | 28 ± 1% | > 100 µM | 42 ± 1% | 258 ± 14 µM |  |  | 
COc1ccc2c3c1O[C@H]1C=CC=C[C@@]31CCN(C)C2 [3,4-Anhydrogalanthamine (3), 3,4-anhydrogalanthamine] | > 100 µM | 4% | > 100 µM | 28 ± 1% |  |  |  | 
COc1cc(CN(CCc2ccc(O)cc2)Cc2cc(OC)c(OC)cc2-c2cccc3c2N(C)CC3)c(-c2cccc3c2N(C)CC3)cc1OC [Carltonine C (15), carltonine C] | > 100 µM | 9% | 14.8 ± 1.1 µM | 78 ± 1% |  | >7 |  | 
COc1cc(CN(C)CCc2ccc(O)cc2)c(-c2cccc3c2N(C)CC3)cc1OC [Carltonine A (13), carltonine A] | > 100 µM | 2% | 0.91 ± 0.02 µM | 98 ± 1% | 143 ± 12 µM | >110 | higher than 100 | 
c1ccc2c(c1)ncc1cc3c(cc12)OCO3 [Trispheridine (2), trisphaeridine] | > 100 µM | 6 ± 1% | > 100 µM | 13 ± 1% |  |  |  | 
CN(CCc1ccc(O)cc1)Cc1cc2c(cc1-c1cccc3c1N(C)CC3)OCO2 [Carltonine B (14), carltonine B] | > 100 µM | 40 ± 1% | 0.031 ± 0.001 µM | 99 ± 1% |  | >3226 |  | higher than 100
